≈ marks a conversion by molar mass, not a printed value. Calls of active or inactive are those of the source. No cut-off for these calls is given here.

As usually defined, the EC50 is the concentration that produces a half-maximal response. Usually Emax stands for the greatest response seen or fitted, relative to the assay's reference. The IC20 is the concentration needed for an effect of 20%. By IC50 is commonly meant the concentration at which inhibition is half-maximal. What is called AUC is concentration integrated over time. A word on the Tmax: it is the time at which the peak concentration occurs. The term half-life denotes the time in which the quantity being followed falls by half. The term bioavailability denotes dose-corrected exposure relative to a reference, in per cent. For orientation: Cmax means the maximum level reached in the sampled fluid or tissue. As a reminder, the clearance is a measure of how efficiently the substance is removed, as volume per time. The Vd is a proportionality between amount in the body and measured concentration, not a real space.

Series [1] is described as follows: Agonist activity at GPR119 receptor in hamster HIT-T15 cells assessed as intracellular cAMP level. Type of series: cell-based. As to conditions: Cricetinae. On the technique in general: cAMP levels reflect the balance of adenylyl cyclase and phosphodiesterase activity.
The next series deals with HIT-T15. The experiment in a line: Agonist activity at GPR119 receptor in hamster HIT-T15 cells assessed as intracellular cAMP level relative to AR-231,453. Type of series: cell-based. As to conditions: Cricetinae.
The next series has as its target hERG (KCNH2) (Homo sapiens, UniProt Q12809). The experiment in a line: Inhibition of human ERG channel.
The next series concerns the target Cytochrome P450 3A4 (Homo sapiens, UniProt P08684). The experiment in a line: Inhibition of CYP3A4 (unknown origin). Type of series: ADME.
For the next series, the target named is Cytochrome P450 2C9 (Homo sapiens, UniProt P11712). The experiment in a line: Inhibition of CYP2C9 (unknown origin). Type of series: ADME.
Sequence of Cytochrome P450 2C9 (P11712 whole entry): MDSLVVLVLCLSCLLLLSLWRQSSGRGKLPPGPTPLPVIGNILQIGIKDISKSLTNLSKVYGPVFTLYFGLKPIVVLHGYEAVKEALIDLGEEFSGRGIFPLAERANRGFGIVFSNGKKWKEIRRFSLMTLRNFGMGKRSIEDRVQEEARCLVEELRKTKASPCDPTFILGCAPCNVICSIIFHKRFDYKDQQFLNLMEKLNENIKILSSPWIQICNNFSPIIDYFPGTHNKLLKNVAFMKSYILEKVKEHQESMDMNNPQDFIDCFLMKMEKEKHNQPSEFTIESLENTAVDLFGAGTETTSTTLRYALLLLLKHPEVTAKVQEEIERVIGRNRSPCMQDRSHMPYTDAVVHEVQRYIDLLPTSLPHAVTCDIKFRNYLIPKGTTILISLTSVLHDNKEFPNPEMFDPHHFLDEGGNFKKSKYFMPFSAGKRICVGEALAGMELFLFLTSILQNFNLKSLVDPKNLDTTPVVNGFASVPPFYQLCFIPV
Series [2] can be described thus: Clearance in mouse liver microsomes. Type of series: ADME, Microsome. Particulars: read-out: CLH. (Liver microsomes are vesicles of endoplasmic reticulum, rich in cytochrome P450 enzymes.)
A short description of series [3]: Kinetic solubility of the compound at pH 6.5. Type of series: physicochemical. As to conditions: buffer, read-out: Kinetic_solubility.
Series [4] can be described thus: AUC in mouse at 10 mg/kg, po. As to conditions: plasma. Type of series: ADME, organism-based. Details: dose 10 mg/kg, route oral.
Series [5] can be described thus: Tmax in mouse at 10 mg/kg, po. Type of series: ADME, organism-based. Further details: dose 10 mg/kg, route oral. As to conditions: in vivo.
For the next series, the system named is Hepatocyte. The experiment in a line: Metabolic stability of the compound in mouse hepatocytes assessed as glutathione adduct formation. Type of series: ADME, cell-based.
The next series has as its system Mus musculus. The experiment in a line: Antihyperglycemic activity in C57Bl/6J mouse assessed as reduction of AUC (0 to 120 mins) of glucose excursion at 30 mg/kg, po administered 2 hrs before glucose challenge. Further details: scale not given: the % may be the effect or the level left. Type of series: functional.
The nature of series [6]: Half life in mouse at 5 mg/kg, iv. Type of series: ADME, organism-based. Details: dose 5 mg/kg, route intravenous. Particulars: in vivo.
Series [7] is described as follows: Oral bioavailability in mouse at 10 mg/kg. Type of series: ADME, organism-based. As to conditions: in vivo.
Series [8] is described as follows: Cmax in mouse at 10 mg/kg, po. Type of series: ADME, organism-based. Further details: dose 10 mg/kg, route oral. Particulars: in vivo.
Series [9] is described as follows: Clearance in mouse at 5 mg/kg, iv. Details: dose 5 mg/kg, route intravenous. Type of series: ADME, organism-based. As to conditions: in vivo.
The nature of series [10]: AUC in mouse at 5 mg/kg, iv. Type of series: ADME, organism-based. Details: dose 5 mg/kg, route intravenous. As to conditions: plasma.
Series [11] can be described thus: Volume of distribution in mouse at 5 mg/kg, iv. Type of series: ADME, organism-based. Details: dose 5 mg/kg, route intravenous. Particulars: in vivo.

Sequence of hERG (KCNH2) (Q12809 whole entry): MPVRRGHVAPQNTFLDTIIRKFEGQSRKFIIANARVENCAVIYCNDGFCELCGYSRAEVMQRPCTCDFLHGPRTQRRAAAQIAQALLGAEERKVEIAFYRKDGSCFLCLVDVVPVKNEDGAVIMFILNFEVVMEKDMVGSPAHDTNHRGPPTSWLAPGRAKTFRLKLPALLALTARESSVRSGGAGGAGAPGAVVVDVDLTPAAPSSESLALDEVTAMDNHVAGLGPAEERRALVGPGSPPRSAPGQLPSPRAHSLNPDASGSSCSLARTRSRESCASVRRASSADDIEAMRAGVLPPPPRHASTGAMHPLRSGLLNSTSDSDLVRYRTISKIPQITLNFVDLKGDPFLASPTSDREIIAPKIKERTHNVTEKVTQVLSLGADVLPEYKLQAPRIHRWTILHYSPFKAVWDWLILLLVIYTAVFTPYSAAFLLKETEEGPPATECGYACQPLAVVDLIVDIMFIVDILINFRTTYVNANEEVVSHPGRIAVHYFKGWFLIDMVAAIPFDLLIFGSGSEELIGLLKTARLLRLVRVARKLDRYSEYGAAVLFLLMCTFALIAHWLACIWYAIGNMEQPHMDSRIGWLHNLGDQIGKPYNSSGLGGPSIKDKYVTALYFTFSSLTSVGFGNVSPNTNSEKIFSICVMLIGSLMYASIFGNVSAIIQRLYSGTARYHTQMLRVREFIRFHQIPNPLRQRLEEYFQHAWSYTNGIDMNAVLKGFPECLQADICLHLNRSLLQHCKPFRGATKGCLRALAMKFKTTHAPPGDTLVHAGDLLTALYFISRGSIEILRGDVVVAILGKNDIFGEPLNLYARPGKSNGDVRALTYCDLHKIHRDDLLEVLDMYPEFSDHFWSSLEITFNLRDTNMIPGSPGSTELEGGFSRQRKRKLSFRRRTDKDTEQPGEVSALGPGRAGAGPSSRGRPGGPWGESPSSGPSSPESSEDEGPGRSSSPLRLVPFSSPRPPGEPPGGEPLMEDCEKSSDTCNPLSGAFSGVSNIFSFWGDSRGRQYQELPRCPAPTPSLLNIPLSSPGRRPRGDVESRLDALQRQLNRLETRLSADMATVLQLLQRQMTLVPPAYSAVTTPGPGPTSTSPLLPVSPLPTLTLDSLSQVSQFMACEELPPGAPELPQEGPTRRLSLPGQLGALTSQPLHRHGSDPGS
Sequence of Cytochrome P450 3A4 (P08684 whole entry): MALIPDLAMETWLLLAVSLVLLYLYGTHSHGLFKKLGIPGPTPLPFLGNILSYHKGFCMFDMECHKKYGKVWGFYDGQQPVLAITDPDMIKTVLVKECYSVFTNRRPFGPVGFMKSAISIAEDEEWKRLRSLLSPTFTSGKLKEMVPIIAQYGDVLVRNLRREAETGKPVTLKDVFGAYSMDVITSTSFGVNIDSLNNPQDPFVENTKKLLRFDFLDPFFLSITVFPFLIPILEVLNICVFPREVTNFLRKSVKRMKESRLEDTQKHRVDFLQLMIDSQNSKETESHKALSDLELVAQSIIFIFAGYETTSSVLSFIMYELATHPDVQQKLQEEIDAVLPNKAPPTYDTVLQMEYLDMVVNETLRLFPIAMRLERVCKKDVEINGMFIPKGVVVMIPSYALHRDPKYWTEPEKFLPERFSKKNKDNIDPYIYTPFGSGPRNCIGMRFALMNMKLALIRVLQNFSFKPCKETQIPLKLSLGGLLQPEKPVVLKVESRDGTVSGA

On to `CC(C)(C)OC(=O)N1CCC(n2ncc3c(Oc4ccccc4C#N)ncnc32)CC1`, for which the concentration for a half-maximal effect (EC50) in series [1] was found to be 61 nM.

`CC(C)(C)OC(=O)N1CCC(n2ncc3c(Oc4ccccc4F)ncnc32)CC1`: in the series with HIT-T15, the Emax is 107%. Besides, the concentration for a half-maximal effect (EC50) in series [1] was 190 nM.

With `CC(C)(C)COC(=O)N1CCC(n2ncc3c(Oc4ccc(S(C)(=O)=O)cc4)ncnc32)CC1`, the maximum response (Emax) in the series with HIT-T15 was 93%. The 50% effective concentration (EC50) in series [1] was 100 nM.

For the molecule `CC(C)(C)OC(=O)N1CCC(n2ncc3c(Oc4ccccc4)ncnc32)CC1`, the Emax in the series with HIT-T15 stood at 30%. In addition, the concentration for a half-maximal effect (EC50) in series [1] was more than 25000 nM.

Consider `CS(=O)(=O)c1ccc(Oc2ncnc3c2cnn3C2CCN(C(=O)OCC(Cl)(Cl)Cl)CC2)cc1`, for which, in the series with HIT-T15, the Emax is 90%. Further, in series [1], the EC50 was determined as 18 nM.

As to `CS(=O)(=O)c1ccc(Oc2ncnc3c2cnn3C2CCN(Cc3cccc(Cl)c3)CC2)cc1`, the maximum response (Emax) with HIT-T15 was 83%. In addition, the concentration for a half-maximal effect (EC50) in series [1] came out at 280 nM.

Take `COc1cc(OC)cc(Oc2ncnc3c2cnn3C2CCN(C(=O)OC(C)(C)C)CC2)c1`: the Emax in the series on HIT-T15 stood at 34%. The half-maximal effective concentration (EC50) in series [1] came to 6400 nM.

For the molecule `CC(C)(C)CC(=O)N1CCC(n2ncc3c(Oc4ccc(S(C)(=O)=O)cc4)ncnc32)CC1`, in the series on HIT-T15, the maximum response (Emax) worked out at 58%. Also, the EC50 in series [1] is 270 nM.

`CC(C)CC(=O)N1CCC(n2ncc3c(Oc4ccc(S(C)(=O)=O)cc4)ncnc32)CC1` yielded a 20% effect concentration (IC20) against hERG (KCNH2) of 2700 nM. In addition, the IC50 against Cytochrome P450 3A4 and on Cytochrome P450 2C9 was more than 25000 nM each time. Further, the maximal effect (Emax) in the series on HIT-T15 came out at 59%. For the same molecule, the microsomal CLint in [2] worked out at 29 µL/min/mg. Besides, in series [3], the solubility kinetic came out at 32 µg/mL (≈ 69.9 µM). Moreover, in series [1], the concentration for a half-maximal effect (EC50) was determined as 330 nM.

Turning to `CC(C)(C)OC(=O)N1CCC(n2ncc3c(Oc4ccc(C(C)(C)C)cc4)ncnc32)CC1`, the Emax in the series on HIT-T15 came out at 13%. Besides, the EC50 in [1] is more than 25000 nM.

`CS(=O)(=O)c1ccc(Nc2ncnc3c2cnn3C2CCN(Cc3ccccc3)CC2)cc1`: the Emax in the series on HIT-T15 was found to be 64%. The 50% effective concentration (EC50) in series [1] was 19000 nM.

In the case of `CC(=O)c1ccc(Oc2ncnc3c2cnn3C2CCN(C(=O)OC(C)(C)C)CC2)cc1`, the maximal effect (Emax) with HIT-T15 came out at 83%. The concentration for a half-maximal effect (EC50) in series [1] was determined as 160 nM.

As for `CC(C)OC(=O)N1CCC(n2ncc3c(Oc4ccc(S(C)(=O)=O)cc4)ncnc32)CC1`, the concentration for an effect of 20% (IC20) against hERG (KCNH2) amounted to 500 nM. Further, the results for the AUC in series [4] and in [10] were 41300 ng·h/mL and 25300 ng·h/mL, respectively. Also, the time of peak concentration (Tmax) in [5] was determined as 4 h. The IC50 on Cytochrome P450 3A4 and against Cytochrome P450 2C9 was more than 6000 nM each time. The Emax in the series on HIT-T15 is 92%. For the same molecule, the Stability result with Hepatocyte was “Unstable”. The Activity in the series with Mus musculus is 44%. In series [2], the microsomal CLint is 85 µL/min/mg. In [6], this molecule showed a half-life of 1.6 h. In addition, in [7], the bioavailability worked out at 82%. The molecule also had a maximum concentration (Cmax) in [8] of 13.2 µM. This molecule also gave a clearance in [9] of 3.3 mL/min/kg. Also, in series [3], the solubility kinetic is less than 1 µg/mL. In [1], the EC50 was found to be 150 nM. For the same molecule, the volume of distribution (Vd) in [11] was 0.46 L/kg.

In the case of `CS(=O)(=O)c1ccc(Oc2ncnc3c2cnn3C2CCN(Cc3cccc(OC(F)(F)F)c3)CC2)cc1`, the Emax in the series on HIT-T15 was 54%. The EC50 in [1] was 120 nM.

Take `CC(C)(C)OC(=O)N1CCC(n2ncc3c(Oc4ccc(F)cc4)ncnc32)CC1`: the maximal response (Emax) with HIT-T15 amounted to 82%. The EC50 in [1] worked out at 540 nM.

As for `CC(C)(C)OC(=O)N1CCC(n2ncc3c(Oc4ccc(S(C)(=O)=O)cc4)ncnc32)CC1`, the IC20 against hERG (KCNH2) was 2700 nM. The concentration for half-maximal inhibition (IC50) against Cytochrome P450 3A4 was 3100 nM; at Cytochrome P450 2C9, more than 3000 nM. For the same molecule, in the series on HIT-T15, the maximal effect (Emax) came to 101%. Also, the result in the series on Mus musculus was inactive. For the same molecule, the microsomal CLint in series [2] amounted to 86 µL/min/mg. The solubility kinetic in [3] is less than 1 µg/mL. In addition, the 50% effective concentration (EC50) in series [1] was determined as 43 nM.

`CC(C)(C)OC(=O)N1CCC(n2ncc3c(Nc4ccc(S(C)(=O)=O)cc4)ncnc32)CC1`: in the series on HIT-T15, the Emax was 105%. In addition, in series [1], the EC50 was found to be 1400 nM.

Consider `CS(=O)(=O)c1ccc(Oc2ncnc3c2cnn3C2CCN(Cc3ccccc3)CC2)cc1`, for which, in the series on HIT-T15, the Emax was 87%. Moreover, the concentration giving a half-maximal response (EC50) in series [1] came out at 580 nM.

On to `CC(C)(C)OC(=O)N1CCC(n2ncc3c(Oc4ccc(C(F)(F)F)cc4)ncnc32)CC1`, for which, in the series on HIT-T15, the Emax was determined as 27%. Besides, the EC50 in series [1] was more than 25000 nM.

`CC(C)(C)OC(=O)N1CCC(n2ncc3c(Nc4ccc(S(C)(=O)=O)cc4F)ncnc32)CC1` registered a 20% effect concentration (IC20) against hERG (KCNH2) of 2600 nM. Besides, the maximum response (Emax) with HIT-T15 is 103%. Moreover, the IC50 against Cytochrome P450 2C9 was 900 nM. Moreover, the microsomal CLint in series [2] turned out to be 70 µL/min/mg. In addition, the solubility kinetic in series [3] is 8 µg/mL (≈ 16.3 µM). Besides, in [1], the EC50 stood at 240 nM.

`CC(C)(C)OC(=O)N1CCC(n2ncc3c(Oc4cccc(C(C)(C)C)c4)ncnc32)CC1`: the Emax with HIT-T15 turned out to be 27%. Besides, the half-maximal effective concentration (EC50) in series [1] is more than 25000 nM.

On hERG (KCNH2), `CS(=O)(=O)c1ccc(Oc2ncnc3c2cnn3C2CCN(Cc3ccc(C(F)(F)F)cc3)CC2)cc1` showed an IC20 of 200 nM. Besides, the IC50 on Cytochrome P450 3A4 is 1800 nM; against Cytochrome P450 2C9, more than 6000 nM. The maximal effect (Emax) with HIT-T15 was found to be 59%. In addition, the microsomal CLint in [2] amounted to 114 µL/min/mg. Besides, in series [3], the solubility kinetic was less than 1 µg/mL. The EC50 in series [1] was found to be 36 nM.

Regarding `CC(C)C(=O)N1CCC(n2ncc3c(Oc4ccc(S(C)(=O)=O)cc4)ncnc32)CC1`, the maximal effect (Emax) in the series with HIT-T15 is 60%. Moreover, the EC50 in series [1] was 990 nM.

Consider `CS(=O)(=O)c1ccc(Oc2ncnc3c2cnn3C2CCN(Cc3ccc(F)cc3)CC2)cc1`, for which the Emax with HIT-T15 was found to be 69%. The EC50 in series [1] stood at 200 nM.

Regarding `CC(C)(C)OC(=O)N1CCC(n2ncc3c(Nc4cc(F)c(F)cc4F)ncnc32)CC1`, the Emax with HIT-T15 is 97%. Further, in series [1], the EC50 came to 530 nM.

For `CC(C)(C)OC(=O)N1CCC(n2ncc3c(Oc4ccc(C#N)cc4)ncnc32)CC1`, the maximal effect (Emax) with HIT-T15 amounted to 87%. Moreover, in [1], the EC50 was determined as 580 nM.

Consider `CS(=O)(=O)c1ccc(Oc2ncnc3c2cnn3C2CCN(C(=O)CCc3ccccc3)CC2)cc1`, for which the Emax in the series on HIT-T15 turned out to be 94%. Besides, the EC50 in series [1] amounted to 1000 nM.

`CS(=O)(=O)c1ccc(Oc2ncnc3c2cnn3C2CCN(Cc3ccc(Cl)cc3)CC2)cc1`: the maximal effect (Emax) in the series on HIT-T15 stood at 73%. In addition, the EC50 in [1] came to 570 nM.

In the case of `CC(C)OC(=O)N1CCC(n2ncc3c(Nc4ccc(S(C)(=O)=O)cc4)ncnc32)CC1`, in the series on HIT-T15, the Emax was determined as 92%. In addition, the EC50 in [1] amounted to 5740 nM.

Turning to `CCOC(=O)N1CCC(n2ncc3c(Oc4ccc(S(C)(=O)=O)cc4)ncnc32)CC1`, the Emax in the series with HIT-T15 turned out to be 81%. Besides, in series [1], the 50% effective concentration (EC50) was 650 nM.

Take `CC(C)COC(=O)N1CCC(n2ncc3c(Oc4ccc(S(C)(=O)=O)cc4)ncnc32)CC1`: in the series with HIT-T15, the Emax is 84%. Besides, in series [1], the EC50 is 110 nM.

Take `CC(C)(C)OC(=O)N1CCC(n2ncc3c(Oc4cc(F)c(F)cc4F)ncnc32)CC1`: the Emax in the series with HIT-T15 came out at 95%. Further, the EC50 in series [1] is 88 nM.

These data come from ChEMBL document CHEMBL3112399, “Discovery of pyrazolo[3,4-d]pyrimidine derivatives as GPR119 agonists” (Bioorg Med Chem Lett, 2014).
